Legend:
[1] = target: T1, human TLR7 (Homo sapiens, UniProt Q9NYK1); test: TLR7 activation in Namalwa cells (IFN-α1 promoter luciferase reporter, N-TLR7/N-vector); assay type: cell-based; conditions: final IRM concentration 10 μM, 18 hours, normalized to the DMSO without compound control
T1 construct: expressed in transfected cells; host or cells: Namalwa cells (ATCC CRL-1432), pCI-neo vector, electroporated, G418 selected, with pIFN-α1-luc reporter
T1 sequence (Q9NYK1 27-1049): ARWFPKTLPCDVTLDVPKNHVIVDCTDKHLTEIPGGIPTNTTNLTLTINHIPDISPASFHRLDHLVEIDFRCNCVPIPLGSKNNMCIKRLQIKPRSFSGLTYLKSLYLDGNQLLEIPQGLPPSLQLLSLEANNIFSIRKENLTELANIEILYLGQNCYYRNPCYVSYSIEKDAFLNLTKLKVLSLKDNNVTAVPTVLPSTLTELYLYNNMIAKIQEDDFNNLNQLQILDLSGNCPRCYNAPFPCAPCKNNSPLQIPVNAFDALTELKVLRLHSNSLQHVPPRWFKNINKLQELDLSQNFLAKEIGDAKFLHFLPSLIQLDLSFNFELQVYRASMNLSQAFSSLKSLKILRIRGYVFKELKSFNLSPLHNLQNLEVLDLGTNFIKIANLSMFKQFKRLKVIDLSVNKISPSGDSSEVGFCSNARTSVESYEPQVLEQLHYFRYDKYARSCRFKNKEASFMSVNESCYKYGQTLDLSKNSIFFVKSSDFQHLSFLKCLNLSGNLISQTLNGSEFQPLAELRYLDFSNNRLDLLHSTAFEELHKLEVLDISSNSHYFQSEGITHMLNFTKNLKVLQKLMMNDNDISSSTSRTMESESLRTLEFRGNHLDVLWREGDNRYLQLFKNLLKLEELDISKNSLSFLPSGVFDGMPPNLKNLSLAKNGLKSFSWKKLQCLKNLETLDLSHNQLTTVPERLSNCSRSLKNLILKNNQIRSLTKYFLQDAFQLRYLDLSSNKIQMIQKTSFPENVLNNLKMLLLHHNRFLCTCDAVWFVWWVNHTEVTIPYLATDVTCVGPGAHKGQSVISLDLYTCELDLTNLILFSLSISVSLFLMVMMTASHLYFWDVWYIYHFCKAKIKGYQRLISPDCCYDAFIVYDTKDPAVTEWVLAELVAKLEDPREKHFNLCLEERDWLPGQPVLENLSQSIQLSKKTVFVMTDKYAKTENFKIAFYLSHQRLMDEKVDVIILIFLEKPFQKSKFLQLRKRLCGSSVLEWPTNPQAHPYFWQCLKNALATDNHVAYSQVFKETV
Procedure: (§1) In one embodiment, exemplified in Example 1, selective modulation of TLR7-mediated NF-κB activation and TLR7-mediated IFN-α1 induction were assayed. NF-κB activation was measured in genetically modified HEK293 cells (H-TLR7) by detecting TLR7-mediated NF-κB-dependent transcription of a luciferase reporter. IFN-α1 induction was measured in genetically modified Namalwa cells (N-TLR7) by detecting TLR-mediated IFN-α1-induced transcription of a luciferase reporter. Results are shown in Table 2 and are expressed as the fold increase in TLR7-mediated luciferase signal—(H-TLR7/H-vector) and (N-TLR7/N-vector), respectively—normalized to a control in which the cells were treated with vehicle that contained no IRM compound. In this assay, a compound was considered to induce the TLR7-mediated cellular activity if the compound generated at least a two-fold increase in the luciferase signal compared to the vector control.
Unless otherwise indicated, all incubations were performed at 37° C. with 5% CO2 at 98% humidity.
Culture medium was prepared from complete RPMI 1640 medium (BioSource International, Inc., Camarillo, Calif.). Fetal bovine serum (Atlas Biologicals, Inc., Ft. Collins, Colo.) was added to a final concentration of 7.5% (vol/vol); L-glutamine (BioSource International, Inc.) was added to 5 mM; and sodium pyruvate (BioSource International, Inc.) was added to 1 mM.
Namalwa cells were grown by incubation in culture medium overnight. Cells were harvested by centrifugation in a tabletop centrifuge (1200 RPM for 5 minutes), and then resuspended in phosphate buffered sucrose to a concentration of 1.3×10^7 cells/mL.
For each transfection, a 750 μL aliquot of the cell suspension was placed in an electroporation cuvette with 4 mm gaps. Each aliquot received transfection DNA: 10 μg of pGL3-Enhancing vector (Promega Corp., Madison, Wis.) containing the human IFN-α1 promoter cloned into the BglII site (pIFN-α1-luc), and 10 μg of pCI-neo mammalian expression vector (Promega Corp.) either (1) unmodified (N-vector) or (2) containing an expressible human TLR7 gene (N-TLR7). The cell and vector mixtures were incubated at room temperature for 5 minutes. The cells were electroporated using a BioRad Gene Pulser (BioRad Laboratories, Hercules, Calif.) set to at 500 μF capacitance and […], then incubated at room temperature for 5 minutes.
The electroporated cells were suspended in 10 mL of culture medium and incubated overnight. Dead cells and debris were removed after 24 hours using a MACS Dead Cell Removal kit (Miltenyi Biotec, Auburn, Calif.). Cells were resuspended in 10 mL of culture medium and incubated for an additional 24 hours.
Transfected cells were selected by adding G418 (Promega Corp., Madison, Wisc.) to a final concentration of 1 mg/mL and incubating the cells for seven days.
The selected transfected cells were counted and resuspended to a concentration of 1×10^6 cell per mL in culture medium. 100 μl aliquots of cells were placed in the wells of a white-walled, white-bottomed 96-well plate (Corning, Inc. Corning, N.Y.). 1.0 μL of an IRM compound from Table 1 (prepared at 1 mM in 100% DMSO) was added to some cell aliquots so that the final concentration of IRM compound was 10 μM. As a positive control, some cell aliquots were incubated with Sendai virus instead of IRM compound. As a negative control, some cell aliquots were incubated with DMSO without IRM compound. In all cases, the cells were incubated for 18 hours.
The plates were equilibrated to room temperature before 1 volume of reconstituted LucLight Plus (Packard Instruments, Meriden, Conn.) was added to each aliquot of cells. Each well of the plate was read on an LJL Analyst (LJL Biosystems, Inc., Sunnyvale, Calif.) set with a 5 minute dark adapt.
(§2) The data are expressed as fold increase in TLR7-mediated luciferase signal—(H-TLR7/H-vector) and (N-TLR7/N-vector), respectively—normalized to the DMSO without compound control.

[2] = target: T1, human TLR7; test: TLR7 activation in HEK293 cells (NF-kB-luc luciferase reporter, H-TLR7/H-vector); assay type: cell-based; conditions: final IRM concentration 10 μM, 16 hours, normalized to the DMSO without compound control
Procedure: as §1
HEK293 medium was prepared from 90% Minimum Essential Medium (MEM) with 2 mM L-glutamine and Earle's Balanced Salt Solution (Invitrogen Corp., Rockville, Md.) adjusted to contain 1.5 g/L sodium bicarbonate, 0.1 mM non-essential amino acids, and 1.0 mM sodium pyruvate; 10% heat-inactivated fetal calf serum. HEK293 cells were cultured by incubating cells in HEK293 medium overnight at 37° C, 8% CO2.
Twenty-four hours before transfection, HEK293 cells were adhered to a 10 cm dish (Corning 430167, Corning Inc., Corning, N.Y.) at 37° C., 8% CO2. The cells were co-transfected with (1) pIRES (BD Biosciences Clontech, Palo Alto, Calif.) either (a) unmodified (H-vector), or (b) containing an expressible human TLR7 gene (H-TLR7), and (2) NF-kB-luc reporter (Stratagene, La Jolla, Calif.) in a 10:1 ratio with Fugene 6 transfection reagent (Roche Diagnostics Corp., Indianapolis, Ind.) following the manufacturer's instructions. The plates were incubated for 24 hours following transfection and then selected in G-418 (400 μg/mL) for two weeks. The G-418-resistant cells containing either the expressible TLR7 gene or the empty vector were expanded in HEK293 medium supplemented with G-418 for stimulation experiments.
The transfected cells were plated in white opaque 96 well plates (Costar 3917, Corning Inc., Corning, N.Y.) at a concentration of 5×10^4 cells per well in 100 μL of HEK293 media and incubated at 37° C., 8% CO2 for 4 hours. The cells were stimulated with 1 μL of IRM compounds at 1 mM in DMSO (final IRM concentration of 10 μM) or 1 μL DMSO as a control. The plates were then incubated an additional 16 hours at 37° C., 5% CO2. The luciferase signal was read using the LucLite kit (Packard Instrument Co., Meriden, Conn.). Luminescence was measured on an LMAX luminometer (Molecular Devices Corp., Sunnyvale, Calif.).
as §2

N-TLR7: fold increase in TLR7-mediated luciferase signal (N-TLR7/N-vector), IFN-α1 promoter reporter [1] | H-TLR7: fold increase in TLR7-mediated luciferase signal (H-TLR7/H-vector), NF-κB-dependent reporter [2] | SMILES
3.8 fold | 0.7 fold | CCCc1nc2c(N)nc3ccccc3c2n1CCCCS(C)(=O)=O [IRM21, 1-[4-(methylsulfonyl)butyl]-2-propyl-1H-imidazo[4,5-c]quinolin-4-amine]
3.3 fold | 0.5 fold | CCOCc1nc2c(N)nc3ccccc3c2n1CCCCNC(=O)N1CCOCC1 [IRM18]
3.0 fold | 7.6 fold | COCCc1nc2c(N)nc3c(c2n1CC(C)(C)NS(C)(=O)=O)CCCC3 [IRM25, N-{2-[4-amino-2-(2-methoxyethyl)-6,7,8,9-tetrahydro-1H-imidazo[4,5-c]quinolin-1-yl]-1,dimethylethyl}methanesulfonamide]
3.3 fold | 0.9 fold | CCCCCc1nc2c(N)nc3ccccc3c2n1CCCCNS(C)(=O)=O [IRM14, N-[4-(4-amino-2-pentyl-1H-imidazo[4,5-c]quinolin-1-yl)butyl]methanesulfonamide]
3.7 fold | 0.8 fold | CCc1nc2c(N)nc3ccccc3c2n1CCOCCNC(=O)Nc1ccccc1 [IRM20, N-{2-[2-(4-amino-2-ethyl-1H-imidazo[4,5-c]quinolin-1-yl)ethoxy]ethyl}-N′-phenylurea]

Continued, compound first:

SMILES | N-TLR7: fold increase in TLR7-mediated luciferase signal (N-TLR7/N-vector), IFN-α1 promoter reporter [1] | H-TLR7: fold increase in TLR7-mediated luciferase signal (H-TLR7/H-vector), NF-κB-dependent reporter [2]
Cc1nc2c(N)nc3ccccc3c2n1CCOC/C=C/c1ccccc1 [IRM5, 2-methyl-1-(2-{[(2E)-3-phenylprop-2-enyl]oxy}ethyl)-1H-imidazo[4,5-c]quinolin-4-amine] | 1.6 fold | 3.4 fold
Nc1nc2ccccc2c2c1ncn2CCOCC#Cc1csc(C=O)c1 [IRM1, 4-{3-[2-(4-amino-1H-imidazo[4,5-c]quinolin-1-yl)ethoxy]-1-propynyl}-2-thiophenecarboxaldehyde] | 1.6 fold | 13.2 fold
CC(C)Cn1c(CO)nc2c(N)nc3c(c21)CCCC3 [IRM8, 2-hydroxymethyl-1-(2-methylpropyl)-6,7,8,9-tetrahydro-1H-imidazo[4,5-c]quinolin-4-amine] | 3.0 fold | 0.4 fold
COCCc1nc2c(N)nc3ccccc3c2n1CC(C)(C)CNC(=O)Nc1ccccc1 [IRM4, N-{3-[4-amino-2-(2-methoxyethyl)-1H-imidazo[4,5-c]quinolin-1-yl]-2,2-dimethylpropyl}-N′-phenylurea] | 1.6 fold | 15.0 fold
CCCCc1nc2c(N)nc3cccnc3c2n1CCNC(=O)C(N)CC(C)C (stereo not drawn) [IRM11, N^1-[2-(4-amino-2-butyl-1H-imidazo[4,5-c][1,5]naphthyridin-1-yl)ethyl]-2-amino-4-methylpentanamide] | 2.8 fold | 0.5 fold
CCCCSCCCCn1c(CC)nc2c(N)nc3ccccc3c21 [IRM6, 1-[4-(butylthio)butyl]-2-ethyl-1H-imidazo[4,5-c]quinolin-4-amine] | 1.4 fold | 7.1 fold
CCCCc1nc2c(N)nc(C)c(C)c2n1CCCCNC(=O)c1ccccc1 [IRM13, N-[4-(4-amino-2-butyl-6,7-dimethyl-1H-imidazo[4,5-c]pyridin-1-yl)butyl]benzamide] | 2.6 fold | 1.0 fold
